# Values of other authors in patent US20020102309A1, “CONTROLLED RELEASE FORMULATION FOR ADMINISTRATION OF AN ANTI-INFLAMMATORY NAPHTHALENE DERIVATIVE” (priority 1999, published 2002).
# Tested on: patients with osteoarthritis or rheumatoid arthritis
structure (smiles),measurement,setting,value
"COc1ccc2cc(CCC(C)=O)ccc2c1 [nabumetone, 4-(6′-methoxy-2′-naphthyl)butan-2-20 one]","duodenal ulcer, gastric ulcer, and gastrointestinal bleeding, patients taking the drug",literature (Pisko et al. 1987 and others),less than 1 % of patients
same,"ulcers occurred, treated patients","patients with osteoarthritis or rheumatoid arthritis, Dahl 1993",0.03 % of patients
